Patent publication EP0908457B1, “3-(1,2-benzisothiazol- and isoxazol-5-Y1)-2,4(1H,3H)-pyrimidinedione or thione and 3-(1,2-benzisothiazol- and isoxazol-5-y1)-4(3H)-pyrimidinone or thione herbicidal agents” (BASF AKTIENGESELLSCHAFT, priority 1997, dated 1999)

How the values were obtained:
[1] = test system: Cyperus iria; assay: Preemergence weed control under flooded paddy conditions, CYPIR (Rice Flatsedge); assay type: in vivo; details: preemergence weeds, flooded paddy, herbicidal effect rating 0-9, three to four weeks after treatment
[2] = test system: Echinochloa oryzoides (Ard.) Fritsch.; assay: Preemergence weed control under flooded paddy conditions, ECHORC (Watergrass (Calif.)); assay type: in vivo; details: preemergence weeds, flooded paddy, herbicidal effect rating 0-9, three to four weeks after treatment
[3] = test system: Sagittaria pygmaea, L.; assay: Postemergence weed control under flooded paddy conditions, SAGPY (Arrowhead (Pygmaea)); assay type: in vivo; details: rated three to four weeks after treatment
[4] = test system: Monochoria vaginalis, Presl.; assay: Postemergence weed control under flooded paddy conditions, MOOVA (Monochoria); assay type: in vivo; details: rated three to four weeks after treatment
[5] = test system: Cyperus serotinus, Rottb.; assay: Preemergence weed control under flooded paddy conditions, CYPSE (Flatsedge); assay type: in vivo; details: preemergence weeds, herbicidal effect rating 0-9, three to four weeks after treatment
[6] = test system: Monochoria vaginalis, Presl.; assay: Preemergence weed control under flooded paddy conditions, MOOVA (Monochoria); assay type: in vivo; details: preemergence weeds, flooded paddy, herbicidal effect rating 0-9, three to four weeks after treatment
[7] = test system: Cyperus serotinus, Rottb.; assay: Postemergence weed control under flooded paddy conditions, CYPSE (Flatsedge); assay type: in vivo; details: rated three to four weeks after treatment
[8] = test system: Oryza sativa, (L.) Tebonnet; assay: Rice tolerance to post-transplant applications under flooded paddy conditions (Example 188), ORYSAT (Rice, Tebonnet); details: rated three to four weeks after treatment
[9] = test system: Echinochloa oryzoides (Ard.) Fritsch.; assay: Postemergence weed control under flooded paddy conditions, ECHORC (Watergrass (Calif.)); assay type: in vivo; details: rated three to four weeks after treatment
[10] = test system: Cyperus iria; assay: Postemergence weed control under flooded paddy conditions, CYPIR (Rice Flatsedge); assay type: in vivo; details: rated three to four weeks after treatment
[11] = test system: Sagittaria pygmaea, L.; assay: Preemergence weed control under flooded paddy conditions, SAGPY (Arrowhead (Pygmaea)); assay type: in vivo; details: preemergence weeds, flooded paddy, herbicidal effect rating 0-9, three to four weeks after treatment
[12] = test system: Oryza sativa, (L.) Tebonnet; assay: Rice tolerance to post-transplant applications under flooded paddy conditions (Example 187), ORYSAT (Rice, Tebonnet); details: herbicidal effect rating 0-9, three to four weeks after treatment

COc1cc(C)c(I)cc1-c1nsc2ccc(-n3c(=O)cc(C(F)(F)F)n(C)c3=O)cc12 [Example 429, 2,4(1H,3H)-Pyrimidinedione, 3-[3-(5-iodo-2-methoxy-p-tolyl)-1,2-benzisothiazol-5-yl]-1-methyl-6-(trifluoromethyl)-]
CYPIR ([1]; 0.0320 kg/ha): 7.3
CYPIR ([1]; 0.0620 kg/ha): 7.7
CYPIR ([1]; 0.1250 kg/ha): 8.3
CYPIR ([1]; 0.2500 kg/ha): 9.0
ECHORC ([2]; 0.0320 kg/ha): 9.0
ECHORC ([2]; 0.0620 kg/ha): 9.0
ECHORC ([2]; 0.1250 kg/ha): 9.0
ECHORC ([2]; 0.2500 kg/ha): 9.0
herbicidal effect rating, SAGPY ([3]; Rate 0.0320 kg/ha): 0.0
herbicidal effect rating, SAGPY ([3]; Rate 0.0620 kg/ha): 0.0
herbicidal effect rating, SAGPY ([3]; Rate 0.1250 kg/ha): 0.0
herbicidal effect rating, SAGPY ([3]; Rate 0.2500 kg/ha): 0.0
herbicidal effect rating, MOOVA ([4]; Rate 0.0320 kg/ha): 2.0
herbicidal effect rating, MOOVA ([4]; Rate 0.0620 kg/ha): 4.0
herbicidal effect rating, MOOVA ([4]; Rate 0.1250 kg/ha): 7.0
herbicidal effect rating, MOOVA ([4]; Rate 0.2500 kg/ha): 7.0
CYPSE ([5]; 0.0320 kg/ha): 0.0
CYPSE ([5]; 0.0620 kg/ha): 1.0
CYPSE ([5]; 0.1250 kg/ha): 1.0
CYPSE ([5]; 0.2500 kg/ha): 1.0
MOOVA ([6]; 0.0320 kg/ha): 9.0
MOOVA ([6]; 0.0620 kg/ha): 9.0
MOOVA ([6]; 0.1250 kg/ha): 9.0
MOOVA ([6]; 0.2500 kg/ha): 9.0
herbicidal effect rating, CYPSE ([7]; Rate 0.0320 kg/ha): 0.0
herbicidal effect rating, CYPSE ([7]; Rate 0.0620 kg/ha): 0.0
herbicidal effect rating, CYPSE ([7]; Rate 0.1250 kg/ha): 0.0
herbicidal effect rating, CYPSE ([7]; Rate 0.2500 kg/ha): 0.0
herbicidal effect rating, ORYSAT (rice tolerance) ([8]; Rate 0.0320 kg/ha): 1.0
herbicidal effect rating, ORYSAT (rice tolerance) ([8]; Rate 0.0620 kg/ha): 1.0
herbicidal effect rating, ORYSAT (rice tolerance) ([8]; Rate 0.1250 kg/ha): 2.0
herbicidal effect rating, ORYSAT (rice tolerance) ([8]; Rate 0.2500 kg/ha): 2.0
herbicidal effect rating, ECHORC ([9]; Rate 0.0320 kg/ha): 4.0
herbicidal effect rating, ECHORC ([9]; Rate 0.0620 kg/ha): 6.0
herbicidal effect rating, ECHORC ([9]; Rate 0.1250 kg/ha): 6.0
herbicidal effect rating, ECHORC ([9]; Rate 0.2500 kg/ha): 9.0
herbicidal effect rating, CYPIR ([10]; Rate 0.0320 kg/ha): 4.0
herbicidal effect rating, CYPIR ([10]; Rate 0.0620 kg/ha): 6.0
herbicidal effect rating, CYPIR ([10]; Rate 0.1250 kg/ha): 7.0
herbicidal effect rating, CYPIR ([10]; Rate 0.2500 kg/ha): 9.0
SAGPY ([11]; 0.0320 kg/ha): 2.0
SAGPY ([11]; 0.0620 kg/ha): 2.3
SAGPY ([11]; 0.1250 kg/ha): 2.3
SAGPY ([11]; 0.2500 kg/ha): 3.0
ORYSAT ([12]; 0.0320 kg/ha): 1.3
ORYSAT ([12]; 0.0620 kg/ha): 2.0
ORYSAT ([12]; 0.1250 kg/ha): 2.3
ORYSAT ([12]; 0.2500 kg/ha): 3.0

CCCCC(=O)c1nsc2ccc(-n3c(=O)cc(C(F)(F)F)n(C)c3=O)cc12 [Example 431, 2,4(1H,3H)-Pyrimidinedione, 1-methyl-6-(trifluoromethyl)-3-(3-valeryl-1,2-benzisothiazol-5-yl)-]
CYPIR ([1]; 0.0320 kg/ha): 8.0
CYPIR ([1]; 0.0620 kg/ha): 9.0
CYPIR ([1]; 0.1250 kg/ha): 9.0
CYPIR ([1]; 0.2500 kg/ha): 9.0
ECHORC ([2]; 0.0320 kg/ha): 8.0
ECHORC ([2]; 0.0620 kg/ha): 9.0
ECHORC ([2]; 0.1250 kg/ha): 8.5
ECHORC ([2]; 0.2500 kg/ha): 9.0
herbicidal effect rating, SAGPY ([3]; Rate 0.0320 kg/ha): 0.0
herbicidal effect rating, SAGPY ([3]; Rate 0.0620 kg/ha): 0.0
herbicidal effect rating, SAGPY ([3]; Rate 0.1250 kg/ha): 0.0
herbicidal effect rating, SAGPY ([3]; Rate 0.2500 kg/ha): 4.0
herbicidal effect rating, MOOVA ([4]; Rate 0.0320 kg/ha): 6.0
herbicidal effect rating, MOOVA ([4]; Rate 0.0620 kg/ha): 9.0
herbicidal effect rating, MOOVA ([4]; Rate 0.1250 kg/ha): 9.0
herbicidal effect rating, MOOVA ([4]; Rate 0.2500 kg/ha): 9.0
CYPSE ([5]; 0.0320 kg/ha): 0.0
CYPSE ([5]; 0.0620 kg/ha): 4.0
CYPSE ([5]; 0.1250 kg/ha): 7.5
CYPSE ([5]; 0.2500 kg/ha): 9.0
MOOVA ([6]; 0.0320 kg/ha): 9.0
MOOVA ([6]; 0.0620 kg/ha): 9.0
MOOVA ([6]; 0.1250 kg/ha): 9.0
MOOVA ([6]; 0.2500 kg/ha): 9.0
herbicidal effect rating, CYPSE ([7]; Rate 0.0320 kg/ha): 0.0
herbicidal effect rating, CYPSE ([7]; Rate 0.0620 kg/ha): 0.0
herbicidal effect rating, CYPSE ([7]; Rate 0.1250 kg/ha): 0.0
herbicidal effect rating, CYPSE ([7]; Rate 0.2500 kg/ha): 4.0
herbicidal effect rating, ORYSAT (rice tolerance) ([8]; Rate 0.0320 kg/ha): 3.0
herbicidal effect rating, ORYSAT (rice tolerance) ([8]; Rate 0.0620 kg/ha): 3.0
herbicidal effect rating, ORYSAT (rice tolerance) ([8]; Rate 0.1250 kg/ha): 3.0
herbicidal effect rating, ORYSAT (rice tolerance) ([8]; Rate 0.2500 kg/ha): 7.0
herbicidal effect rating, ECHORC ([9]; Rate 0.0320 kg/ha): 7.0
herbicidal effect rating, ECHORC ([9]; Rate 0.0620 kg/ha): 9.0
herbicidal effect rating, ECHORC ([9]; Rate 0.1250 kg/ha): 9.0
herbicidal effect rating, ECHORC ([9]; Rate 0.2500 kg/ha): 9.0
herbicidal effect rating, CYPIR ([10]; Rate 0.0320 kg/ha): 4.0
herbicidal effect rating, CYPIR ([10]; Rate 0.0620 kg/ha): 7.0
herbicidal effect rating, CYPIR ([10]; Rate 0.1250 kg/ha): 9.0
herbicidal effect rating, CYPIR ([10]; Rate 0.2500 kg/ha): 9.0
SAGPY ([11]; 0.0320 kg/ha): 3.5
SAGPY ([11]; 0.0620 kg/ha): 5.5
SAGPY ([11]; 0.1250 kg/ha): 7.5
SAGPY ([11]; 0.2500 kg/ha): 9.0
ORYSAT ([12]; 0.0320 kg/ha): 3.5
ORYSAT ([12]; 0.0620 kg/ha): 5.5
ORYSAT ([12]; 0.1250 kg/ha): 5.0
ORYSAT ([12]; 0.2500 kg/ha): 6.5

Cn1c(C(F)(F)F)cc(=O)n(-c2ccc3snc(C(=O)C(C)(C)C)c3c2)c1=O [Example 432, 2,4(1H,3H)-Pyrimidinedione, 1-methyl-3-(3-pivaloyl-1,2-benzisothiazol-5-yl)-6-(trifluoromethyl)-]
CYPIR ([1]; 0.0320 kg/ha): 8.0
CYPIR ([1]; 0.0620 kg/ha): 9.0
CYPIR ([1]; 0.1250 kg/ha): 9.0
CYPIR ([1]; 0.2500 kg/ha): 9.0
ECHORC ([2]; 0.0320 kg/ha): 9.0
ECHORC ([2]; 0.0620 kg/ha): 9.0
ECHORC ([2]; 0.1250 kg/ha): 9.0
ECHORC ([2]; 0.2500 kg/ha): 9.0
herbicidal effect rating, SAGPY ([3]; Rate 0.0320 kg/ha): 0.0
herbicidal effect rating, SAGPY ([3]; Rate 0.0620 kg/ha): 0.0
herbicidal effect rating, SAGPY ([3]; Rate 0.1250 kg/ha): 2.0
herbicidal effect rating, SAGPY ([3]; Rate 0.2500 kg/ha): 4.0
herbicidal effect rating, MOOVA ([4]; Rate 0.0320 kg/ha): 9.0
herbicidal effect rating, MOOVA ([4]; Rate 0.0620 kg/ha): 9.0
herbicidal effect rating, MOOVA ([4]; Rate 0.1250 kg/ha): 9.0
herbicidal effect rating, MOOVA ([4]; Rate 0.2500 kg/ha): 9.0
CYPSE ([5]; 0.0320 kg/ha): 0.0
CYPSE ([5]; 0.0620 kg/ha): 3.5
CYPSE ([5]; 0.1250 kg/ha): 6.5
CYPSE ([5]; 0.2500 kg/ha): 9.0
MOOVA ([6]; 0.0320 kg/ha): 9.0
MOOVA ([6]; 0.0620 kg/ha): 9.0
MOOVA ([6]; 0.1250 kg/ha): 9.0
MOOVA ([6]; 0.2500 kg/ha): 9.0
herbicidal effect rating, CYPSE ([7]; Rate 0.0320 kg/ha): 0.0
herbicidal effect rating, CYPSE ([7]; Rate 0.0620 kg/ha): 4.0
herbicidal effect rating, CYPSE ([7]; Rate 0.1250 kg/ha): 7.0
herbicidal effect rating, CYPSE ([7]; Rate 0.2500 kg/ha): 9.0
herbicidal effect rating, ORYSAT (rice tolerance) ([8]; Rate 0.0320 kg/ha): 4.0
herbicidal effect rating, ORYSAT (rice tolerance) ([8]; Rate 0.0620 kg/ha): 4.0
herbicidal effect rating, ORYSAT (rice tolerance) ([8]; Rate 0.1250 kg/ha): 7.0
herbicidal effect rating, ORYSAT (rice tolerance) ([8]; Rate 0.2500 kg/ha): 7.0
herbicidal effect rating, ECHORC ([9]; Rate 0.0320 kg/ha): 9.0
herbicidal effect rating, ECHORC ([9]; Rate 0.0620 kg/ha): 9.0
herbicidal effect rating, ECHORC ([9]; Rate 0.1250 kg/ha): 9.0
herbicidal effect rating, ECHORC ([9]; Rate 0.2500 kg/ha): 9.0
herbicidal effect rating, CYPIR ([10]; Rate 0.0320 kg/ha): 8.0
herbicidal effect rating, CYPIR ([10]; Rate 0.0620 kg/ha): 8.0
herbicidal effect rating, CYPIR ([10]; Rate 0.1250 kg/ha): 9.0
herbicidal effect rating, CYPIR ([10]; Rate 0.2500 kg/ha): 9.0
SAGPY ([11]; 0.0320 kg/ha): 0.0
SAGPY ([11]; 0.0620 kg/ha): 3.5
SAGPY ([11]; 0.1250 kg/ha): 7.5
SAGPY ([11]; 0.2500 kg/ha): 8.5
ORYSAT ([12]; 0.0320 kg/ha): 6.0
ORYSAT ([12]; 0.0620 kg/ha): 6.0
ORYSAT ([12]; 0.1250 kg/ha): 6.5
ORYSAT ([12]; 0.2500 kg/ha): 7.5
